Assay results taken from article PMC12473906, “Comparing the Altis RepliGut Organoid System to MDCK Monolayers in Predicting the Oral Absorption of Lenalidomide” (Pharmaceutics, 2025).
Entries after “also recorded” stand apart in the source; their conditions may differ.

Columns and labels:
[1] = system: gMDCK monolayers; assay: gMDCK (P-gp knockout MDCK) monolayer permeability assay
[2] = as above; conditions: dog, MDCK
[3] = cited from earlier work
[4] = target: T1, BCRP (Homo sapiens, UniProt Q9UNQ0); assay: Bidirectional permeability in gMDCK cells overexpressing human BCRP (gMDCK-BCRP); assay type: in vitro ADME
T1 construct: expressed in transfected cells; host or cells: gMDCK (P-gp-knockout Madin-Darby Canine Kidney cells), puromycin selection
T1 sequence (Q9UNQ0 1-655): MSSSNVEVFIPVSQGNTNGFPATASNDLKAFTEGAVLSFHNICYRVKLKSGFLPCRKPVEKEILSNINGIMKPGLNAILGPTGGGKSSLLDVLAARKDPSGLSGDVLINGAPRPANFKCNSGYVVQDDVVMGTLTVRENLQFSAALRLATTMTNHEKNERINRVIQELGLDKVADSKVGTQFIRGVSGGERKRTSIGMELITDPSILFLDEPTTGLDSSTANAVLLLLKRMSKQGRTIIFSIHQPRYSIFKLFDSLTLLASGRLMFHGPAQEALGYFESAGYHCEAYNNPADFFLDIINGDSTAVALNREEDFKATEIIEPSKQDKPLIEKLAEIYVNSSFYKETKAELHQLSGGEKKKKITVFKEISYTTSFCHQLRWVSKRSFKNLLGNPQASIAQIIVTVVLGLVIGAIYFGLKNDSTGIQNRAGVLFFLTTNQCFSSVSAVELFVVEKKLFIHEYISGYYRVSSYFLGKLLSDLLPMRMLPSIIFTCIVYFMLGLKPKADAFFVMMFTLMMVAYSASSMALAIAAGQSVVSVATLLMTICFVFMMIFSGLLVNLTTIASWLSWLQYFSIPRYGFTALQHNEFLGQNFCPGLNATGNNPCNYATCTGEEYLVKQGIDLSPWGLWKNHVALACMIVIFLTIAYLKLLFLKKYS
Method: (§1) gMDCK cells were maintained in Dulbecco’s Modified Eagle’s Medium (DMEM) supplemented with Gibco’s MEM amino acids solution (1 X), penicillin (100 units/mL), streptomycin ([…]), and 10% fetal bovine serum and in a humidified, 37 °C, 5% CO2 environment as previously described. Efflux transporter-expressing gMDCK cells, gMDCK-P-gp and gMDCK-BCRP, were cultured in the above-mentioned medium with addition of puromycin (2 µg/mL). All cells were passaged at approximately 80% confluency in T-175 flasks. For permeability assays, gMDCK, gMDCK-P-gp, and gMDCK-BCRP cells were seeded on 96 transwell plates (approximately 40,000 cells/well) and allowed to grow for 48 h in a 37 °C, 5% CO2 environment. Digitonin (10–40 mg/L) was included in some experiments to loosen tight junctions to explore paracellular permeability. TEER values were measured on the day of the experiment using an EVOM^TM Auto (World Precision Instruments, Sarasota, FL, USA).
(§2) Lenalidomide dosing solutions (1–500 µM) were diluted from DMSO stock (500 mM) with HEPES-buffered HBSS (with Ca^2+ and Mg^2+, 10 mM HEPES, pH 7.4) + 20 µM Lucifer yellow resulting in a final DMSO content of 0.2%. Lucifer yellow was measured fluorometrically (Ex/Em 428/532 nm) to assess tight junctions/paracellular transport. Permeability of lenalidomide was assessed bidirectionally in both in vitro models over three hours, and cell monolayers were collected at the end of the experiment.
(§3) Briefly, for assessing apical to basolateral (A to B) permeability, 150 uL of lenalidomide dosing solutions was added to apical side of the transwell, and 250 uL of HEPES-buffered HBSS without Lucifer yellow was added to basolateral side. For evaluating basolateral to apical (B to A) permeability, 250 uL of dosing solutions was added to the basolateral side, and 150 uL of HEPES-buffered HBSS without Lucifer yellow was added to the apical side. An amount of 10 µL was sampled from the dosing side of the transwell at the beginning and the end of the experiment. An amount of 25 µL was sampled from the receiver side at 1, 2, and 3 h.
(§4) Apparent permeability (Papp) was calculated according to the following equation: Papp = (dQ/dt)/(A * C), where dQ/dt is the amount of drug that crosses the membrane per unit of time, A is the surface area of the membrane through which the drug is permeating (0.143 cm^2), and C is the initial concentration added to cells. The efflux ratio was calculated according to the following equation:(4) Efflux ratio= Papp basolateral to apical/Papp apical to basolateral

[5] = target: T2, human P-gp (Homo sapiens, UniProt P08183); assay: Bidirectional permeability in gMDCK cells overexpressing human P-gp (gMDCK-MDR1); assay type: in vitro ADME; conditions: gMDCK P-gp overexpressing cells and organoids
T2 construct: expressed in transfected cells; host or cells: gMDCK (P-gp-knockout Madin-Darby Canine Kidney cells), puromycin selection
T2 sequence (P08183 whole entry): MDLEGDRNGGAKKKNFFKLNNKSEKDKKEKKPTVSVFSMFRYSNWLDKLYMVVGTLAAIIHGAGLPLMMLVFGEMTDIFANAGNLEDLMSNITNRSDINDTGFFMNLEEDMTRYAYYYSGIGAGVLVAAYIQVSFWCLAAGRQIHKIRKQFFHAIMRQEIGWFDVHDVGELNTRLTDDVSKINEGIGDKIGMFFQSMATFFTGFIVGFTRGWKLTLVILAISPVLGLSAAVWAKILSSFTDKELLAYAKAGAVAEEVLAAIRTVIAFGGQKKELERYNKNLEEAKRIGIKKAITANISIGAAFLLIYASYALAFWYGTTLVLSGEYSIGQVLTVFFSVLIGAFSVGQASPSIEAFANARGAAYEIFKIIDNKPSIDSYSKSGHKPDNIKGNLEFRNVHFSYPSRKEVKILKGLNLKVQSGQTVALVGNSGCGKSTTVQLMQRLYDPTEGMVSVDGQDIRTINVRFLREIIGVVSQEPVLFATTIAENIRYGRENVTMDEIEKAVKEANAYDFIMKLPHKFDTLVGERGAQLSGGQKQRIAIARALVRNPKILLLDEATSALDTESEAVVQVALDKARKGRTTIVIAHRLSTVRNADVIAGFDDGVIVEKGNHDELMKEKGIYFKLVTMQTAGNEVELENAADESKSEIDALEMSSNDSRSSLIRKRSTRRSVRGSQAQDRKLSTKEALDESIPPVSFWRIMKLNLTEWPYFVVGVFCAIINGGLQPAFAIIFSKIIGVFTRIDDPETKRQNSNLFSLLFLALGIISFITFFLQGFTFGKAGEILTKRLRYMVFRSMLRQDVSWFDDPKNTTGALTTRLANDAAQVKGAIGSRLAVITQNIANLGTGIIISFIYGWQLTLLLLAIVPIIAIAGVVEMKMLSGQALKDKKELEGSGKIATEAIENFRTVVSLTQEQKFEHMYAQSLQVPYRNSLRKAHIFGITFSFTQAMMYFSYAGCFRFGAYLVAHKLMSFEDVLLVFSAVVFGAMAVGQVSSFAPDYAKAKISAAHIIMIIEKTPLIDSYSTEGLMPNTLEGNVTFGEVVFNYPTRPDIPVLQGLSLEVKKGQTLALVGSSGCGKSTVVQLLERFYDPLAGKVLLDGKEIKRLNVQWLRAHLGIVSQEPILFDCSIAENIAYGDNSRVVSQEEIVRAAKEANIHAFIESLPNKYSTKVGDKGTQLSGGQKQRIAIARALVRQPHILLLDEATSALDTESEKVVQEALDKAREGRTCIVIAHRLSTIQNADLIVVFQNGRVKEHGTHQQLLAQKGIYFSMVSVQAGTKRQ
Method: as §1, §2, §3, §4

[6] = target: T3, P-gp (MDR1) (Homo sapiens, UniProt P08183); assay: as above; assay type: in vitro ADME; conditions: human, MDCK-MDR1, pH 7.4; gMDCK-MDR1
T3 construct: expressed in transfected cells; host or cells: gMDCK (P-gp-knockout Madin-Darby Canine Kidney cells), puromycin selection
T3 sequence (P08183 whole entry): as above
Method: as §1, §2, §3, §4

[7] = system: human intestinal organoid-derived monolayer (RepliGut); assay: RepliGut human jejunal organoid-derived monolayer permeability assay
[8] = cited from earlier work; remark: listed apart in the source
[9] = Lenalidomide Permeability in gMDCK Cells, FaSSIF
[10] = Lenalidomide Permeability in gMDCK Cells, FeSSIF
[11] = pH 7.4, Lenalidomide Permeability in gMDCK Cells, 4% BSA in receiver compartment
[12] = pH 7.4, Lenalidomide Permeability in gMDCK Cells, shaking (1000 rpm)
[13] = pH 7.4, Lenalidomide Permeability in gMDCK Cells, typical assay conditions

Nc1cccc2c1CN(C1CCC(=O)NC1=O)C2=O (centres unmarked) [Lenalidomide]
effect of 4% bovine serum albumin in the receiver side on apparent permeability ([1]; gMDCK, sink condition): did not increase | effect of shaking gMDCK cells during the permeability assay on permeability ([1]; shaking transwell plate at 1000 rpm): did not significantly change | Papp at 3 h, 10 µM [2, 9]: 0.27 ×10⁻⁶ cm/s | Papp at 3 h, 50 µM [2, 9]: 0.28 ×10⁻⁶ cm/s | Papp at 3 h, 250 µM [2, 9]: 0.17 ×10⁻⁶ cm/s | Papp at 3 h, 500 µM ([2]; Lenalidomide Permeability in gMDCK Cells, FaSSIF, 500 uM): 0.13 ×10⁻⁶ cm/s | Papp at 3 h, 10 µM [2, 10]: 0.07 ×10⁻⁶ cm/s | Papp at 3 h, 50 µM [2, 10]: 0.14 ×10⁻⁶ cm/s | Papp at 3 h, 250 µM [2, 10]: 0.1 ×10⁻⁶ cm/s | Papp at 3 h, 500 µM ([2]; Lenalidomide Permeability in gMDCK Cells, FeSSIF, 500 uM): 0.14 ×10⁻⁶ cm/s | Papp A→B at 3 h ([2]; pH 7.4): 0.21 ×10⁻⁶ cm/s | Papp B→A at 3 h ([2]; pH 7.4): 0.13 ×10⁻⁶ cm/s | efflux ratio at 3 h ([2]; pH 7.4): 0.62 | Papp at 3 h, 10 µM [2, 11]: 0.12 ×10⁻⁶ cm/s | Papp at 3 h, 50 µM [2, 11]: 0.16 ×10⁻⁶ cm/s | Papp at 3 h, 250 µM [2, 11]: 0.15 ×10⁻⁶ cm/s | Papp at 3 h, 500 µM ([2]; pH 7.4, Lenalidomide Permeability in gMDCK Cells, 4% BSA in receiver compartment, 500 uM): 0.15 ×10⁻⁶ cm/s | Papp at 3 h, 10 µM [2, 12]: 0.03 ×10⁻⁶ cm/s | Papp at 3 h, 50 µM [2, 12]: 0.03 ×10⁻⁶ cm/s | Papp at 3 h, 250 µM [2, 12]: 0.14 ×10⁻⁶ cm/s | Papp at 3 h, 500 µM ([2]; pH 7.4, Lenalidomide Permeability in gMDCK Cells, shaking (1000 rpm), 500 uM): 0.21 ×10⁻⁶ cm/s | Papp at 3 h, 10 µM [2, 13]: 0.19 ×10⁻⁶ cm/s | Papp at 3 h, 50 µM [2, 13]: 0.22 ×10⁻⁶ cm/s | Papp at 3 h, 250 µM [2, 13]: 0.24 ×10⁻⁶ cm/s | Papp at 3 h, 500 µM ([2]; pH 7.4, Lenalidomide Permeability in gMDCK Cells, typical assay conditions, 500 uM): 0.24 ×10⁻⁶ cm/s | Papp at 3 h ([2]; pH 7.4, apparent permeability (Papp), gMDCK cell monolayers, independent of concentration): ~0.2 ×10⁻⁶ cm/s | Papp at 3 h, 500 µM ([2]; pH 7.4, gMDCK Papp, lenalidomide 500 µM, apical to basolateral, n=3 biological replicates): 0.21 ×10⁻⁶ cm/s | Human Fa (fraction absorbed) [3]: 90% [21] | Elimination half-life ([3]; humans): 3 to 5 h | Metabolism ([3]; humans): < 5% | Oral bioavailability ([3]; humans): > 90% | Route of elimination ([3]; humans): Renal | BCRP substrate ([4]; gMDCK BCRP overexpressing cells and organoids): substrate for both transporters; also recorded: substrate of both P-gp and BCRP | Papp A→B at 3 h ([4]; human, pH 7.4, gMDCK-BCRP): 0.15 ×10⁻⁶ cm/s | Papp B→A at 3 h ([4]; human, pH 7.4, gMDCK-BCRP): 2.4 ×10⁻⁶ cm/s | efflux ratio at 3 h ([4]; human, pH 7.4, gMDCK-BCRP): 16 | P-gp substrate [5]: substrate for both transporters; also recorded: substrate of both P-gp and BCRP | Papp A→B at 3 h [6]: 0.2 ×10⁻⁶ cm/s | Papp B→A at 3 h [6]: 2.8 ×10⁻⁶ cm/s | efflux ratio at 3 h [6]: 14 | Efflux Substrate ([7]; Yes/No): Yes | intracellular concentrations in intestinal organoids with and without elacridar ([7]; apical dosing): similar | accumulation in cells, gMDCK vs organoids ([7]; basolateral dosing): greater in gMDCK cells than organoids | intracellular accumulation in organoids, lower than gMDCK ([7]; basolateral to apical direction): approximately 10 fold | accumulation in the cellular compartment, organoid vs gMDCK monolayers ([7]; dosed apically): no significant difference | apical to basolateral apparent permeability in intestinal organoids compared with gMDCK monolayers ([7]; organoid vs gMDCK): significantly higher | basolateral to apical permeability in intestinal organoids compared with gMDCK cells ([7]; organoid vs gMDCK): significantly higher | LogP (o/w) ([8]; Figure 1, ref PubChem): < 1 | pKa ([8]; lower pKa): 2.3 | LogP ([8]; ref PubChem): −0.40
